PubChem BioAssay (NCI)
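Five compound concentrations were applied to cells in 96-well plates for 48 hours; endpoints were derived by simple linear interpolation of the resulting dose-response curve. Definition used: TGI = concentration required for complete inhibition of growth.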

Columns and labels:
Assay in all cases: DTP human tumour cell line panel, 48 h
786-0 renal = tested on: 786-0 renal
A498 renal = tested on: A498 renal
A549 NSCLC = tested on: A549 NSCLC
ACHN renal = tested on: ACHN renal
BT-549 breast = tested on: BT-549 breast
CAKI-1 renal = tested on: CAKI-1 renal
CCRF-CEM leukemia = tested on: CCRF-CEM leukemia
COLO 205 colon = tested on: COLO 205 colon
DU-145 prostate = tested on: DU-145 prostate
EKVX NSCLC = tested on: EKVX NSCLC
HCC-2998 colon = tested on: HCC-2998 colon
HCT-116 colon = tested on: HCT-116 colon
HCT-15 colon = tested on: HCT-15 colon
HL-60(TB) leukemia = tested on: HL-60(TB) leukemia
HOP-62 NSCLC = tested on: HOP-62 NSCLC
HOP-92 NSCLC = tested on: HOP-92 NSCLC
HS 578T breast = tested on: HS 578T breast
HT29 colon = tested on: HT29 colon
IGROV1 ovarian = tested on: IGROV1 ovarian
K-562 leukemia = tested on: K-562 leukemia
KM12 colon = tested on: KM12 colon
LOX IMVI melanoma = tested on: LOX IMVI melanoma
M14 melanoma = tested on: M14 melanoma
MCF7 breast = tested on: MCF7 breast
MDA-MB-231 breast = tested on: MDA-MB-231 breast
MDA-MB-435 = tested on: MDA-MB-435
MOLT-4 leukemia = tested on: MOLT-4 leukemia
NCI-H226 lung = tested on: NCI-H226 lung
NCI-H23 lung = tested on: NCI-H23 lung
NCI-H460 lung = tested on: NCI-H460 lung
NCI-H522 lung = tested on: NCI-H522 lung
NCI/ADR-RES ovarian = tested on: NCI/ADR-RES ovarian
OVCAR-3 ovarian = tested on: OVCAR-3 ovarian
OVCAR-4 ovarian = tested on: OVCAR-4 ovarian
OVCAR-5 ovarian = tested on: OVCAR-5 ovarian
OVCAR-8 ovarian = tested on: OVCAR-8 ovarian
PC-3 prostate = tested on: PC-3 prostate
RPMI-8226 leukemia = tested on: RPMI-8226 leukemia
RXF 393 renal = tested on: RXF 393 renal
SF-268 CNS = tested on: SF-268 CNS
SF-295 CNS = tested on: SF-295 CNS
SK-MEL-2 melanoma = tested on: SK-MEL-2 melanoma
SK-MEL-28 melanoma = tested on: SK-MEL-28 melanoma
SK-MEL-5 melanoma = tested on: SK-MEL-5 melanoma
SK-OV-3 ovarian = tested on: SK-OV-3 ovarian
SN12C renal = tested on: SN12C renal
SNB-19 CNS = tested on: SNB-19 CNS
SNB-75 CNS = tested on: SNB-75 CNS
SR leukemia = tested on: SR leukemia
SW-620 colon = tested on: SW-620 colon
T-47D breast = tested on: T-47D breast
TK-10 renal = tested on: TK-10 renal
U251 CNS = tested on: U251 CNS
UACC-257 melanoma = tested on: UACC-257 melanoma
UACC-62 melanoma = tested on: UACC-62 melanoma
UO-31 renal = tested on: UO-31 renal

## Cn1c(=O)c2c(nc3n(Cc4ccccc4)c(=O)c(NCCCBr)cn23)n(C)c1=O
786-0 renal
  TGI: > 100 µM
A498 renal
  TGI: > 100 µM
A549 NSCLC
  TGI: > 100 µM
ACHN renal
  TGI: > 100 µM
BT-549 breast
  TGI: > 100 µM
CAKI-1 renal
  TGI: > 100 µM
CCRF-CEM leukemia
  TGI: > 100 µM
COLO 205 colon
  TGI: > 100 µM
DU-145 prostate
  TGI: > 100 µM
EKVX NSCLC
  TGI: > 100 µM
HCC-2998 colon
  TGI: > 100 µM
HCT-116 colon
  TGI: > 100 µM
HCT-15 colon
  TGI: > 100 µM
HL-60(TB) leukemia
  TGI: > 100 µM
HOP-62 NSCLC
  TGI: > 100 µM
HOP-92 NSCLC
  TGI: 58.5 µM
HS 578T breast
  TGI: > 100 µM
HT29 colon
  TGI: > 100 µM
IGROV1 ovarian
  TGI: > 100 µM
K-562 leukemia
  TGI: > 100 µM
KM12 colon
  TGI: > 100 µM
LOX IMVI melanoma
  TGI: > 100 µM
M14 melanoma
  TGI: > 100 µM
MCF7 breast
  TGI: > 100 µM
MDA-MB-231 breast
  TGI: > 100 µM
MDA-MB-435
  TGI: > 100 µM
MOLT-4 leukemia
  TGI: > 100 µM
NCI-H226 lung
  TGI: > 100 µM
NCI-H23 lung
  TGI: > 100 µM
NCI-H460 lung
  TGI: > 100 µM
NCI-H522 lung
  TGI: > 100 µM
NCI/ADR-RES ovarian
  TGI: > 100 µM
OVCAR-3 ovarian
  TGI: > 100 µM
OVCAR-4 ovarian
  TGI: > 100 µM
OVCAR-5 ovarian
  TGI: > 100 µM
OVCAR-8 ovarian
  TGI: > 100 µM
PC-3 prostate
  TGI: > 100 µM
RPMI-8226 leukemia
  TGI: > 100 µM
RXF 393 renal
  TGI: > 100 µM
SF-268 CNS
  TGI: > 100 µM
SF-295 CNS
  TGI: > 100 µM
SK-MEL-2 melanoma
  TGI: > 100 µM
SK-MEL-28 melanoma
  TGI: > 100 µM
SK-MEL-5 melanoma
  TGI: > 100 µM
SK-OV-3 ovarian
  TGI: 97.3 µM
SN12C renal
  TGI: > 100 µM
SNB-19 CNS
  TGI: > 100 µM
SNB-75 CNS
  TGI: 97.7 µM
SR leukemia
  TGI: > 100 µM
SW-620 colon
  TGI: > 100 µM
T-47D breast
  TGI: > 100 µM
TK-10 renal
  TGI: > 100 µM
U251 CNS
  TGI: > 100 µM
UACC-257 melanoma
  TGI: > 100 µM
UACC-62 melanoma
  TGI: > 100 µM
UO-31 renal
  TGI: > 100 µM
